Read-outs that look alike come from different tables or passages of the source.
Assays:
[1] = target: T1, BpDdl (Burkholderia pseudomallei D-alanine-D-alanine ligase) (Burkholderia pseudomallei, UniProt Q63QJ9); details: substrate inhibition at high ATP; 10 mM D-Ala, pH 8, 10 mM MgCl2, 100 mM KCl, 30 °C; enzyme co-purified with AMP
T1 construct: gene ddl

[2] = target: T1, BpDdl (Burkholderia pseudomallei D-alanine-D-alanine ligase); test: biochemical
[3] = target: T1, BpDdl (Burkholderia pseudomallei D-alanine-D-alanine ligase); test: biochemical; remark: listed apart in the source

T1 sequence (Q63QJ9 whole entry, looked up): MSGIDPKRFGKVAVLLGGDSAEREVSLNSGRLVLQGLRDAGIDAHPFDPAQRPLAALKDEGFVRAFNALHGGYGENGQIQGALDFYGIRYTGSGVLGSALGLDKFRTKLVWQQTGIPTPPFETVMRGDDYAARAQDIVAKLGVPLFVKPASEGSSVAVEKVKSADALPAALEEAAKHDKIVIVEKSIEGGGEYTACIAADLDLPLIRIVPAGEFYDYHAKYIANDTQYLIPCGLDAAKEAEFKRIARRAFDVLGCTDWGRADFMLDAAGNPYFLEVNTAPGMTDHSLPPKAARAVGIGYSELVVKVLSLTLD

Structure (SMILES): Nc1ncnc2c1ncn2[C@@H]1O[C@H](COP(=O)(O)OP(=O)(O)OP(=O)(O)O)[C@@H](O)[C@H]1O [ATP]
- K i,ATP [1]: 3.16 ± 0.59 mM

Structure (SMILES): N[C@@H]1CON=C1O [DCS]
- Ki [2]: 0.1 mM

Structure (SMILES): CC(=O)NCc1ccccc1Cl [compound identified in the fragment screen]
- Ki [3]: 10 mM

— paper PMC6899670 (The Febs Journal, 2019)
